Peptide text beside a SMILES is read from it. * marks the point of attachment. 5FAM = O=C1OC2(c3ccc(O)cc3Oc3cc(O)ccc32)c2ccc(C(=O)*)cc21
Test: in vivo
Design: species or system BALB/C athymic nude mice
Conditions: BALB/C athymic nude, mouse, iv, 150 uL of 1 mM, T/NT ratio
Experimental: Mice with U87MG tumor xenografts (n = 10) were randomly divided into an experimental group (n = 5) and control group (n = 5). The mice in the experimental group were intravenously injected with 150 μL of FAM-tLyP-1 (1mM), while the control group received 150 μL of FAM-labeled control peptide (1mM). The mice were sacrificed after 1 h by cervical dislocation under ketamine/xylazine anesthesia. The tumor and normal organs were then removed, washed with PBS at least three times, and then collected for imaging ex vivo. FAM-tLyP-1 uptake in the tumor and normal organs was described by a blinded observer under blue light with an exposure time of 60 s, using the Kodak in-Vivo Imaging System F (Kodak, American), and processed for fluorescence intensity analysis. The fluorescence intensity was analyzed visually based on the brightness of the green light indicating uptake of FAM-tLyP-1.
The intensity of FAM-tLyP-1 uptake in the tumor and normal organs was analyzed blindly using the Kodak MI analysis software (Kodak, American). The fluorescence intensity was analyzed visually from high to low levels based on a color scale of white, red, yellow, green, blue, and black. Regions of interest (ROIs) were drawn around the border of the tumor and normal organs on the fluorescence images and the average fluorescence intensity was measured. The tumor/non-tumor ratios (T/NT ratios) were calculated by dividing the fluorescence intensity in the tumor by that of the normal organs.

| tissue to tissue ratio at 1 h (T/brain) | tissue to tissue ratio at 1 h (T/heart) | tissue to tissue ratio at 1 h (T/intestine) | tissue to tissue ratio at 1 h (T/kidney) | tissue to tissue ratio at 1 h (T/liver) | tissue to tissue ratio at 1 h (T/lung) | tissue to tissue ratio at 1 h (T/muscle) | tissue to tissue ratio at 1 h (T/spleen) | SMILES |
| --- | --- | --- | --- | --- | --- | --- | --- | --- |
| 1.32 ± 0.15 | 1.94 ± 0.26 | 0.87 ± 0.3 | 0.57 ± 0.51 | 1.28 ± 0.25 | 1.4 ± 0.1 | 1.31 ± 0.14 | 1.75 ± 0.17 | CSCC[C@H](N)C(=O)N[C@@H](C)C(=O)N[C@@H](CCC(N)=O)C(=O)N[C@@H](CCCCNC(=O)c1ccc2c(c1)C(=O)OC21c2ccc(O)cc2Oc2cc(O)ccc21)C(=O)N[C@H](C(=O)N[C@@H](CO)C(=O)N[C@@H](Cc1c[nH]cn1)C(=O)O)[C@@H](C)O [FAM-control peptide] (H-MAQK(5FAM)TSH-OH) |
| 3.44 ± 0.83 | 4.61 ± 1 | 0.84 ± 0.35 | 0.88 ± 0.74 | 2.34 ± 0.36 | 3.29 ± 0.79 | 2.87 ± 0.45 | – | C[C@@H](O)[C@H](NC(=O)[C@H](CCCNC(=N)N)NC(=O)[C@H](CCCCNC(=O)c1ccc2c(c1)C(=O)OC21c2ccc(O)cc2Oc2cc(O)ccc21)NC(=O)[C@H](CC(N)=O)NC(=O)CNC(=O)[C@@H](N)CS)C(=O)N[C@@H](CCCNC(=N)N)C(=O)O [FAM-tLyP-1] (H-CGNK(5FAM)RTR-OH) |
